Data published in PubChem BioAssay (NCI).
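Grown in 96-well plates, cells were treated for 48 hours with each compound at five concentrations. Insufficient inhibition: endpoint recorded as highest concentration tested. The concentration for 50% growth inhibition is given as GI50. Definition used: TGI = concentration required for complete inhibition of growth.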

Tests used:
Assay in all cases: inhibition of tumour cell growth, NCI panel, 48 h
786-0 renal = tested on: 786-0 renal
A498 renal = tested on: A498 renal
A549 NSCLC = tested on: A549 NSCLC
ACHN renal = tested on: ACHN renal
CAKI-1 renal = tested on: CAKI-1 renal
CCRF-CEM leukemia = tested on: CCRF-CEM leukemia
COLO 205 colon = tested on: COLO 205 colon
DLD-1 colon = tested on: DLD-1 colon
DMS 114 small cell lung = tested on: DMS 114 small cell lung
DMS 273 small cell lung = tested on: DMS 273 small cell lung
HCC-2998 colon = tested on: HCC-2998 colon
HCT-116 colon = tested on: HCT-116 colon
HCT-15 colon = tested on: HCT-15 colon
HOP-18 NSCLC = tested on: HOP-18 NSCLC
HOP-62 NSCLC = tested on: HOP-62 NSCLC
HOP-92 NSCLC = tested on: HOP-92 NSCLC
HT29 colon = tested on: HT29 colon
IGROV1 ovarian = tested on: IGROV1 ovarian
K-562 leukemia = tested on: K-562 leukemia
KM12 colon = tested on: KM12 colon
KM20L2 colon = tested on: KM20L2 colon
LOX IMVI melanoma = tested on: LOX IMVI melanoma
LXFL 529 NSCLC = tested on: LXFL 529 NSCLC
M14 melanoma = tested on: M14 melanoma
M19-MEL melanoma = tested on: M19-MEL melanoma
MALME-3M melanoma = tested on: MALME-3M melanoma
MOLT-4 leukemia = tested on: MOLT-4 leukemia
NCI-H23 lung = tested on: NCI-H23 lung
NCI-H460 lung = tested on: NCI-H460 lung
NCI-H522 lung = tested on: NCI-H522 lung
OVCAR-3 ovarian = tested on: OVCAR-3 ovarian
OVCAR-4 ovarian = tested on: OVCAR-4 ovarian
OVCAR-5 ovarian = tested on: OVCAR-5 ovarian
OVCAR-8 ovarian = tested on: OVCAR-8 ovarian
RPMI-8226 leukemia = tested on: RPMI-8226 leukemia
RXF 393 renal = tested on: RXF 393 renal
SF-268 CNS = tested on: SF-268 CNS
SF-295 CNS = tested on: SF-295 CNS
SF-539 CNS = tested on: SF-539 CNS
SK-MEL-2 melanoma = tested on: SK-MEL-2 melanoma
SK-MEL-28 melanoma = tested on: SK-MEL-28 melanoma
SK-MEL-5 melanoma = tested on: SK-MEL-5 melanoma
SK-OV-3 ovarian = tested on: SK-OV-3 ovarian
SN12C renal = tested on: SN12C renal
SNB-19 CNS = tested on: SNB-19 CNS
SNB-75 CNS = tested on: SNB-75 CNS
SNB-78 CNS = tested on: SNB-78 CNS
SR leukemia = tested on: SR leukemia
SW-620 colon = tested on: SW-620 colon
TK-10 renal = tested on: TK-10 renal
U251 CNS = tested on: U251 CNS
UACC-257 melanoma = tested on: UACC-257 melanoma
UACC-62 melanoma = tested on: UACC-62 melanoma
UO-31 renal = tested on: UO-31 renal
EKVX NSCLC = tested on: EKVX NSCLC
HL-60(TB) leukemia = tested on: HL-60(TB) leukemia
XF 498 CNS = tested on: XF 498 CNS

`CCCCCCCC/C=C/CCCCCCCC(=O)N(O)C1CC(n2cc(C)c(=O)[nH]c2=O)OC1CO` (stereo not drawn) showed a TGI (786-0 renal) of 16 µM, a TGI (A498 renal) of 32.2 µM and a TGI (A549 NSCLC) of 33.9 µM. The TGI (ACHN renal) was 18 µM, the TGI (CAKI-1 renal) was 21.6 µM and the TGI (CCRF-CEM leukemia) was 20.4 µM. It also gave a TGI (COLO 205 colon) of 16.7 µM, a TGI (DLD-1 colon) of 18.4 µM and a TGI (DMS 114 small cell lung) of 10.9 µM. It also gave a TGI (DMS 273 small cell lung) of 16.1 µM, a TGI (HCC-2998 colon) of 22.4 µM and a TGI (HCT-116 colon) of 20.6 µM. It also gave a TGI (HCT-15 colon) of 16.2 µM, a TGI (HOP-18 NSCLC) of 13.9 µM and a TGI (HOP-62 NSCLC) of 18.1 µM. For the same molecule, the TGI (HOP-92 NSCLC) was 28.7 µM, the TGI (HT29 colon) was 22.4 µM and the TGI (IGROV1 ovarian) was 17.6 µM. For the same molecule, the TGI (K-562 leukemia) was 21 µM, the TGI (KM12 colon) was 23.3 µM and the TGI (KM20L2 colon) was 16.4 µM. It also gave a TGI (LOX IMVI melanoma) of 17.3 µM, a TGI (LXFL 529 NSCLC) of 22.4 µM and a TGI (M14 melanoma) of 10.1 µM. It also gave a TGI (M19-MEL melanoma) of 17.7 µM, a TGI (MALME-3M melanoma) of 22 µM and a TGI (MOLT-4 leukemia) of 19.6 µM. For the same molecule, the TGI (NCI-H23 lung) was 23.2 µM, the TGI (NCI-H460 lung) was 13.6 µM and the TGI (NCI-H522 lung) was 20.2 µM. It also gave a TGI (OVCAR-3 ovarian) of 20.1 µM, a TGI (OVCAR-4 ovarian) of 25 µM and a TGI (OVCAR-5 ovarian) of 22.3 µM. For the same molecule, the TGI (OVCAR-8 ovarian) was 24.9 µM, the TGI (RPMI-8226 leukemia) was 50.1 µM and the TGI (RXF 393 renal) was 16.2 µM. It also gave a TGI (SF-268 CNS) of 26.3 µM, a TGI (SF-295 CNS) of 21.4 µM and a TGI (SF-539 CNS) of 24.2 µM. The TGI (SK-MEL-2 melanoma) was 26.9 µM, the TGI (SK-MEL-28 melanoma) was 19.4 µM and the TGI (SK-MEL-5 melanoma) was 19.5 µM. It also gave a TGI (SK-OV-3 ovarian) of 21.9 µM, a TGI (SN12C renal) of 22.8 µM and a TGI (SNB-19 CNS) of 25.5 µM. For the same molecule, the TGI (SNB-75 CNS) was 29.8 µM, the TGI (SNB-78 CNS) was 45.8 µM and the TGI (SR leukemia) was 20.5 µM. The TGI (SW-620 colon) was 23.8 µM, the TGI (TK-10 renal) was 22.7 µM and the TGI (U251 CNS) was 17 µM. The TGI (UACC-257 melanoma) was 26.7 µM, the TGI (UACC-62 melanoma) was 11 µM and the TGI (UO-31 renal) was 14.4 µM.
For `O=C([CH-]C(=O)C(F)(F)F)c1ccccc1.O=C([CH-]C(=O)C(F)(F)F)c1ccccc1.[O]=[U+2]=[O]`, the GI50 (786-0 renal) was 21.7 µM, the TGI (786-0 renal) was 89.4 µM and the GI50 (A498 renal) was 24.6 µM. It also gave a TGI (A498 renal) of 74.4 µM, a GI50 (A549 NSCLC) of 27.4 µM and a TGI (A549 NSCLC) greater than 100 µM. For the same molecule, the GI50 (ACHN renal) was 13.6 µM, the TGI (ACHN renal) was 80.9 µM and the GI50 (CAKI-1 renal) was 39 µM. It also gave a TGI (CAKI-1 renal) greater than 100 µM, a GI50 (CCRF-CEM leukemia) of 11.4 µM and a TGI (CCRF-CEM leukemia) greater than 100 µM. It also gave a GI50 (COLO 205 colon) of 34.5 µM, a TGI (COLO 205 colon) greater than 100 µM and a GI50 (DLD-1 colon) of 7.75 µM. The TGI (DLD-1 colon) was greater than 100 µM, the GI50 (DMS 273 small cell lung) was 7.38 µM and the TGI (DMS 273 small cell lung) was greater than 100 µM. The GI50 (EKVX NSCLC) was 22.3 µM, the TGI (EKVX NSCLC) was 72.9 µM and the GI50 (HCC-2998 colon) was 14.4 µM. The TGI (HCC-2998 colon) was 61.7 µM, the GI50 (HCT-15 colon) was 7.27 µM and the TGI (HCT-15 colon) was greater than 100 µM. The GI50 (HL-60(TB) leukemia) was 15.8 µM, the TGI (HL-60(TB) leukemia) was 78.4 µM and the GI50 (HOP-62 NSCLC) was 15.1 µM. It also gave a TGI (HOP-62 NSCLC) of 53.9 µM, a GI50 (HOP-92 NSCLC) of 30.9 µM and a TGI (HOP-92 NSCLC) of 95.6 µM. It also gave a GI50 (HT29 colon) of 28.3 µM, a TGI (HT29 colon) of 68.2 µM and a GI50 (IGROV1 ovarian) of 16.5 µM. The TGI (IGROV1 ovarian) was greater than 100 µM, the GI50 (K-562 leukemia) was 13.1 µM and the TGI (K-562 leukemia) was greater than 100 µM. For the same molecule, the GI50 (KM12 colon) was 26 µM, the TGI (KM12 colon) was 92.6 µM and the GI50 (KM20L2 colon) was 19.9 µM. It also gave a TGI (KM20L2 colon) greater than 100 µM, a GI50 (LOX IMVI melanoma) of 13 µM and a TGI (LOX IMVI melanoma) greater than 100 µM. It also gave a GI50 (LXFL 529 NSCLC) of 7.33 µM, a TGI (LXFL 529 NSCLC) greater than 100 µM and a GI50 (M14 melanoma) of 19.1 µM. For the same molecule, the TGI (M14 melanoma) was 88.9 µM, the GI50 (M19-MEL melanoma) was 16.6 µM and the TGI (M19-MEL melanoma) was greater than 100 µM. For the same molecule, the GI50 (MALME-3M melanoma) was 18.6 µM, the TGI (MALME-3M melanoma) was 47.7 µM and the GI50 (MOLT-4 leukemia) was 19.4 µM. For the same molecule, the TGI (MOLT-4 leukemia) was greater than 100 µM, the GI50 (NCI-H23 lung) was 4.71 µM and the TGI (NCI-H23 lung) was 67.7 µM. The GI50 (NCI-H460 lung) was 12.6 µM, the TGI (NCI-H460 lung) was 90.6 µM and the GI50 (NCI-H522 lung) was 4.11 µM. The TGI (NCI-H522 lung) was greater than 100 µM, the GI50 (OVCAR-3 ovarian) was 18 µM and the TGI (OVCAR-3 ovarian) was 56.7 µM. For the same molecule, the GI50 (OVCAR-4 ovarian) was 10.4 µM, the TGI (OVCAR-4 ovarian) was greater than 100 µM and the GI50 (OVCAR-5 ovarian) was 64.1 µM. For the same molecule, the TGI (OVCAR-5 ovarian) was greater than 100 µM, the GI50 (OVCAR-8 ovarian) was 14.1 µM and the TGI (OVCAR-8 ovarian) was 93.6 µM. The GI50 (RPMI-8226 leukemia) was 8.51 µM, the TGI (RPMI-8226 leukemia) was greater than 100 µM and the GI50 (RXF 393 renal) was 16.9 µM. It also gave a TGI (RXF 393 renal) of 45.4 µM, a GI50 (SF-268 CNS) of 4.53 µM and a TGI (SF-268 CNS) greater than 100 µM. For the same molecule, the GI50 (SF-295 CNS) was 20.8 µM, the TGI (SF-295 CNS) was 86.5 µM and the GI50 (SF-539 CNS) was 4.13 µM. For the same molecule, the TGI (SF-539 CNS) was greater than 100 µM, the GI50 (SK-MEL-2 melanoma) was 28 µM and the TGI (SK-MEL-2 melanoma) was greater than 100 µM. The GI50 (SK-MEL-28 melanoma) was 9.2 µM, the TGI (SK-MEL-28 melanoma) was 79.5 µM and the GI50 (SK-MEL-5 melanoma) was 17.8 µM. The TGI (SK-MEL-5 melanoma) was greater than 100 µM, the GI50 (SK-OV-3 ovarian) was 51.4 µM and the TGI (SK-OV-3 ovarian) was greater than 100 µM. It also gave a GI50 (SN12C renal) of 9.1 µM, a TGI (SN12C renal) greater than 100 µM and a GI50 (SNB-19 CNS) of 4.62 µM. The TGI (SNB-19 CNS) was greater than 100 µM, the GI50 (SNB-75 CNS) was 28.8 µM and the TGI (SNB-75 CNS) was 85.8 µM. The GI50 (SW-620 colon) was 27.9 µM, the TGI (SW-620 colon) was greater than 100 µM and the GI50 (TK-10 renal) was 20.4 µM. It also gave a TGI (TK-10 renal) of 64.1 µM, a GI50 (U251 CNS) of 5.61 µM and a TGI (U251 CNS) greater than 100 µM. For the same molecule, the GI50 (UACC-257 melanoma) was 27.3 µM, the TGI (UACC-257 melanoma) was greater than 100 µM and the GI50 (UACC-62 melanoma) was 12.2 µM. It also gave a TGI (UACC-62 melanoma) of 87.9 µM, a GI50 (UO-31 renal) of 5.4 µM and a TGI (UO-31 renal) greater than 100 µM. It also gave a GI50 (XF 498 CNS) of 23.8 µM and a TGI (XF 498 CNS) of 69.9 µM.
